Experimental data taken from ChEMBL document CHEMBL5143573, “Cyclohumulanoid Sesquiterpenes Induced by the Noncompetitive Coculture of Phellinus orientoasiaticus and Xylodon flaviporus” (J Nat Prod, 2022).

How the values were obtained:
RAW264.7 [1] = test: Antiinflammatory activity in mouse RAW264.7 cells assessed as inhibition of LPS-induced NO production incubated for 20 hrs by Griess reagent based assay; type: functional, cell-based; details: dose 10-100 µM, DDE = dose-dependent effect
Caco-2 = test: Cytotoxicity against human Caco-2 cells assessed as reduction in cell viability at 10 to 100 uM incubated for 48 hrs by MTT assay; type: toxicity, cell-based; details: caco-2, 48 h, dose 10-100 µM
RAW264.7 [2] = test: Cytotoxicity against LPS-stimulated mouse RAW264.7 cells assessed as reduction in cell viability at 10 to 100 uM incubated for 20 hrs by MTT assay; type: toxicity, cell-based; details: raw264.7, 20 h, dose 10-100 µM
RAW264.7 [3] = test: Antiinflammatory activity in mouse RAW264.7 cells assessed as inhibition of LPS-induced NO production at 100 uM incubated for 20 hrs by Griess reagent based assay relative to control; type: functional

| Compound | Activity (RAW264.7 [1]) | Activity (Caco-2) | Activity (RAW264.7 [2]) | inhibition at 100 µM (RAW264.7 [3]) [%] |
| --- | --- | --- | --- | --- |
| CC1=C2C[C@@](C)(C(=O)O)C[C@H]2C[C@@H](CO)C12CC2 | Dde | Non-Toxic | Non-Toxic | – |
| CC1=C2C[C@@](C)(C(=O)O)C[C@H]2C[C@]2(C)C[C@H](O)[C@]12O | Dde | Non-Toxic | Non-Toxic | 36.4 |
| CC1=C2C[C@@](C)(C(=O)O)C[C@H]2C[C@]2(CO)CC[C@]12O | Dde | Non-Toxic | Non-Toxic | – |
| C[C@H]1CC[C@H](CO)[C@H](CO)C2=C[C@](C)(CO)C[C@H]21 | Dde | Non-Toxic | Non-Toxic | 38 |
| CC1=C(CO)[C@H](C)C[C@@H]2C[C@](C)(C(=O)O)C=C12 | Dde | Non-Toxic | Non-Toxic | 34.8 |
| C[C@H]1CC[C@H](CO)C(CO)=C2[C@H]1CC(C)(C)[C@@H]2O | Dde | Non-Toxic | Non-Toxic | – |
| CC1=C2C[C@@](C)(C(=O)O)C[C@H]2C[C@]2(C)CC[C@]12O | Dde | Non-Toxic | Non-Toxic | – |
